From ChEMBL document CHEMBL3045329, “Synthesis, biological evaluation, and pharmacokinetic profiling of benzophenone derivatives as tumor necrosis factor-alpha and interleukin-6 inhibitors” (Med Chem Res, 2012) come the findings set out here.

pIC50: −log10 of the molar value.

The nature of data set [1]: Cytotoxicity against Homo sapiens (human) […] at 10 uM after 24 hr. The class given is cell-based. The conditions noted are these: cck8, 24 h.
Data set [2] relates to THP-1. The data set can be described thus: Anti-inflammatory activity in Homo sapiens (human) PMA-stimulated THP1 cells assessed as inhibition of LPS-induced IL6 production at 10 uM incubated for 30 min prior to LPS-challenge measured after 24 hr by ELISA. The class given is functional. (In general: An ELISA detects its analyte on a solid surface through an enzyme-linked reagent.)

Data set [3] concerns THP-1. The data set can be described thus: Anti-inflammatory activity in Homo sapiens (human) PMA-stimulated THP1 cells assessed as inhibition of LPS-induced TNFalpha production at 10 uM incubated for 30 min prior to LPS-challenge measured after 24 hr by ELISA. The class given is functional. The conditions noted are these: values are per cent of control.
Data set [4] concerns THP-1. The data set can be described thus: Anti-inflammatory activity in Homo sapiens (human) PMA-stimulated THP1 cells assessed as inhibition of LPS-induced IL6 production incubated for 30 min prior to LPS-challenge measured after 24 hr by ELISA. In kind it is functional, cell-based.
Data set [5] can be described thus: Cytotoxicity against Homo sapiens (human) […] cells at 1 uM after 24 hr. The class given is cell-based.
The test system of data set [6] is THP-1. Nature of the data set: Anti-inflammatory activity in Homo sapiens (human) PMA-stimulated THP1 cells assessed as inhibition of LPS-induced IL6 production at 1 uM incubated for 30 min prior to LPS-challenge measured after 24 hr by ELISA. In kind it is functional.
Data set [7] deals with THP-1. Nature of the data set: Anti-inflammatory activity in Homo sapiens (human) PMA-stimulated THP1 cells assessed as inhibition of LPS-induced TNFalpha production at 1 uM incubated for 30 min prior to LPS-challenge measured after 24 hr by ELISA. The class given is functional.

The inhibition is the share of the control response that was lost under treatment. On to `COc1cc(OC)c(C(=O)c2cccc(C)c2)c(O)c1Br`, for which the Activity in data set [1] was 32%. Moreover, the inhibition at 10 µM with THP-1 [2] came to 76%. Besides, the response, % of control at 10 µM in the data set with THP-1 [3] came out at 4%.

For `COc1cc(OC)c(C(=O)c2cccc(Cl)c2)c(O)c1Br`, the Activity in data set [1] was found to be 33%. The inhibition at 10 µM with THP-1 [2] worked out at 78%. Further, in the data set on THP-1 [3], the response, % of control at 10 µM was determined as 10%.

On to `COc1cc(OC)c(C(=O)c2ccccc2C)c(O)c1Br`, for which the Activity in data set [1] stood at 40%. The inhibition at 10 µM in the data set on THP-1 [2] amounted to 70%. The response, % of control at 10 µM in the data set with THP-1 [3] was determined as 0%.

With `COc1cc(OC)c(C(=O)c2ccccc2F)c(O)c1Br`, the Activity in data set [1] is on record as 46%. Moreover, the inhibition at 10 µM with THP-1 [2] was 76%. Besides, in the data set on THP-1 [3], the response, % of control at 10 µM amounted to 0%.

As to `COc1ccc(C(=O)c2c(OC)cc(OC)c(Br)c2O)cc1`, the Activity in data set [1] came out at 34%. In addition, the inhibition at 10 µM with THP-1 [2] was found to be 82%. The response, % of control at 10 µM in the data set with THP-1 [3] was determined as 6%.

On to `COc1cc(OC)c(C(=O)c2ccccc2)c(O)c1Br`, for which the Activity in data set [1] is recorded as 38%. The inhibition at 10 µM in the data set with THP-1 [2] worked out at 80%. Further, the response, % of control at 10 µM with THP-1 [3] worked out at 19%.

Broadly, the pIC50 is the IC50 on a negative log10 scale, so that one unit is a factor of ten. In the case of `COc1cc(OC)c(C(=O)c2ccc(F)cc2)c(O)c1Br`, in data set [1], the Activity is 19%. Further, the inhibition at 10 µM in the data set on THP-1 [2] was determined as 63%. Moreover, in the data set on THP-1 [3], the response, % of control at 10 µM was determined as 0%. Besides, in the data set on THP-1 [4], the pIC50 was 6.72.

In turn, `C[C@@H]1C[C@H]2[C@@H]3CCC4=CC(=O)C=C[C@]4(C)[C@@]3(F)[C@@H](O)C[C@]2(C)[C@@]1(O)C(=O)CO` [DEXAMETHASONE] showed an Activity in data set [5] of 0%. Further, the inhibition at 1 µM in the data set on THP-1 [6] came to 94%; with THP-1 [7], 72%.
